The source of these data is patent US5380732A, “Pesticidal compounds” (priority 1986, dated 1995).

Holding throughout (type): in vivo
Experiment [1] relates to Plutella xylostella. As to the kind of experiment: fourth instar Plutella larvae sprayed and added to sprayed chinese cabbage leaf (Example C). The note with it: 2 days, 25° C. The method, then: (§1) The compounds of the invention were tested by dissolving them in acetone (5%) and then diluting in water/`Synperonic` (94.5%/0.5%) to give a water emulsion. ("Synperonic" is a R.T.M. of I.C.I. plc and is nonylphenol ethoxylate in aqueous solution to give 27%; available from B.D.H., Poole, Dorset, England). The solution was then used to treat the following insects.
7 Fourth instar Plutella larvae were sprayea with the solution containing the compound and added to a chinese cabbage leaf which had been similarly sprayed and left to dry. Mortality was assessed after 2 days at 25° C.

In another experiment the test system is Myzus persicae. As to the kind of experiment: adult Myzus on chinese cabbage leaf disc sprayed (Example C). The note with it: 2 days, 25° C. The method, then:
as §1
10 adult Myzus were placed on a leaf disc of chinese cabbage. 24 hours later the disc was sprayed with the solution containing the compound. Mortality was assessed after 2 days at 25° C.

The subject of the next experiment is Musca domestica. The experiment in a line: spray onto 20 female Musca, mortality after 2 days (Example C). As to conditions: 25° C. The protocol:
as §1
20 female Musca were contained in a cardboard cylinder with gauze over either end. Solution containing the compound was sprayed onto the insects so enclosed and mortality assessed after 2 days at 25° C.

For a further experiment, the system named is Tetranychus urticae. As to the kind of experiment: leaf discs of infested french bean sprayed (Example C). The note with it: 2 days, 25° C. The protocol:
as §1
Leaf discs of infested french bean were sprayed with the solution containing the compound. Mortality was assessed after 2 days at 25° C.

The subject of another experiment is Spodoptera littoralis. As to the kind of experiment: injection into fifth instar Spodoptera littoralis larvae (Example D). The note with it: 5% solution in DMSO/acetone (50:50), 1.0 ul injected, 2 days, 25° C. The protocol:
The compounds of the invention were also tested by dissolving them in DMSO/acetone (50:50) to give a 5% solution, 1.0 ul of which was injected into fifth instar Spodoptera littoralis larvae. Mortality was assessed after 2 days at 25° C.

A further experiment deals with Sitophilus granarius. The experiment in a line: adults on treated wheat, mortality after 6 days, Sitophilus (Example C). The note with it: 25° C. The protocol:
as §1
20 adult Sitophilus and Tribolium were added to 10 g wheat which had been previously treated with 2 ml of the solution containing the compound. Mortality was assessed after 6 days at 25° C.

The subject of experiment [2] is Plutella xylostella. The experiment in a line: discs of chinese cabbage infested with second instar Plutella larvae sprayed (Example C). The note with it: 2 days, 25° C. The protocol: as §1
or Discs of chinese cabbage infested with c8 second instar Plutella larvae were sprayed with the solution containing the compound. Mortality was assessed after 2 days at 25° C.

The next experiment deals with Blatella germanica. The experiment in a line: activity against Blatella germanica with piperonyl butoxide. As to conditions: at up to 10 μg per insect (+piperonyl butoxide).

On to `CC(C)C(C)NC(=O)C=CC=CCCCCCCCOc1cncc(Cl)c1` (stereo not drawn) [Example 24], for which the “active (mortality)” value with Plutella xylostella [1] (at 1000 ppm) is on record as “active”. For `CCC(C)NC(=O)C=C(C)C=CCCCCCCCOc1ncccc1Cl` (stereo not drawn) [Example 13], the “active (mortality)” value with Myzus persicae (at 200 ppm) is on record as “active”. With `CC(C)CNC(=O)C=CC=CCCCCCCCOc1ccc(C(F)(F)F)cn1` [Example 6], the “active (mortality)” value in the experiment with Musca domestica (at 1000 ppm) is listed as “active”. As to `CC(C)CNC(=O)C=CC=CCCCCCCCOc1cccnc1Br` [Example 28], the “active (mortality)” value in the experiment with Tetranychus urticae (at 1000 ppm) is “active”. `CC(C=CCCCCCCCOc1cccc(Cl)n1)=CC(=O)NCC(C)C` [Example 9]: the “active (mortality)” value with Musca domestica (at 1000 ppm), with Plutella xylostella [1] (at 200 ppm) and in the experiment with Tetranychus urticae (at 200 ppm) was “active” throughout. For the compound `CC(C)CNC(=O)C=CC=CCCCCCCCOc1ncccc1C(F)(F)F` [Example 7], the “active (mortality)” value in the experiment on Plutella xylostella [1] (at 1000 ppm) and in the experiment on Spodoptera littoralis was “active” throughout. Regarding `CC(C)CNC(=O)/C=C/C=C/CCCCCCCOc1ccncc1` [Example 31, (2E,4E) N-Isobutyl 12-(4'-pyridyloxy)-dodeca-2,4-dienamide], the “active (mortality)” value with Sitophilus granarius and with Myzus persicae (at 1000 ppm) was “active” throughout. In the case of `CC(C=CCCCCCCCOc1cccc(C(F)(F)F)n1)=CC(=O)NCC(C)C` [Example 8], the “active (mortality)” value in the experiment with Musca domestica (at 1000 ppm), with Plutella xylostella [1] (at 200 ppm), in the experiment on Spodoptera littoralis and with Tetranychus urticae (at 200 ppm) was “active” throughout. With `CC1(CNC(=O)/C=C/C=C/CCCCCCCOc2cc(C(F)(F)F)cc(C(F)(F)F)n2)OCCO1` [Example 22, (2E,4E) N-(2-methyl-1,3-dioxalan-2-yl)-methyl 12-(4',6'-bistrifluoromethyl-2-pyridyloxy)-dodeca-2,4-dienamide], the “active (mortality)” value with Musca domestica (at 200 ppm) and in the experiment on Sitophilus granarius was “active” in each case. In the case of `CCC(C)NC(=O)/C=C/C=C/CCCCCCCOc1ccncc1` (stereo not drawn) [Example 30, (2E,4E) -N-(1-methylpropyl) 12-(4'-pyridyloxy)dodeca-2,4-dienamide], in the experiment on Myzus persicae (at 1000 ppm), the “active (mortality)” value was “active”.

Regarding `CC(C)CNC(=O)C=CC=CCCCCCCCOc1cncc(Cl)c1` [Example 25], the “active (mortality)” value in the experiment on Tetranychus urticae (at 200 ppm) is given as “active”.

On to `CC(C=CCCCCCCCOc1ccc(Cl)cn1)=CC(=O)NCC(C)C` [Example 18], for which the “active (mortality)” value with Musca domestica (at 1000 ppm), with Plutella xylostella [1] (at 1000 ppm), in the experiment on Tetranychus urticae (at 1000 ppm) and with Myzus persicae (at 1000 ppm) was “active” in each case.

`CC(C)CNC(=O)C=CC=CCCCCCCCOc1nc(C(F)(F)F)ccc1C(F)(F)F` [Example 20]: in the experiment on Plutella xylostella [2] (at 200 ppm), the “active (mortality)” value is given as “active”.

For the compound `CC(C)CNC(=O)C=CC=CCCCCCCCOc1ccccn1` [Example 15], the “active (mortality)” value with Myzus persicae (at 200 ppm) was “active”. In the case of `CCC(C)NC(=O)C=CC=CCCCCCCCOc1cccc(C(F)(F)F)n1` (stereo not drawn) [Example 4], the “active (mortality)” value in the experiment with Musca domestica (at 200 ppm) and in the experiment on Tetranychus urticae (at 1000 ppm) was “active” in each case. `CC(C)CNC(=O)C=CC=CCCCCCCCOc1cc(C(F)(F)F)cc(Cl)n1` [Example 10]: the “active (mortality)” value in the experiment with Musca domestica (at 1000 ppm) and with Sitophilus granarius was “active” each time. On to `CC(C)CNC(=O)C=CC=CCCCCCOc1cccc(Cl)n1` [Example 14], for which the “active (mortality)” value with Myzus persicae (at 1000 ppm) is “active”. For the compound `CC(C)CNC(=O)/C=C/C=C/CCCCCCCOc1cccc(C(F)(F)F)n1` [Example 3, (2E,4E) N-isobutyl 12-(6trifluoromethyl-2'-pyridyloxy) dodeca-2,4-dienamide], the “active (mortality)” value in the experiment on Musca domestica (at 200 ppm) and with Tetranychus urticae (at 1000 ppm) was “active” in each case. As for `CC(/C=C/CCCCCCCOc1ncc(C(F)(F)F)cc1Cl)=C(/F)C(=O)NCC(C)C` [Example 39, (2Z,4E)N-Isobutyl 2-fluoro-3-methyl-12-(3-chloro-5-trifluoromethyl-2-pyridyloxy) dodeca-2,4-dienamide], the active result with Blatella germanica is reported as “active”. In the case of `CC(C)CNC(=O)/C=C/C=C/CCCCCCCOc1cc(C(F)(F)F)nc(C(F)(F)F)c1` [Example 35, (2E,4E) N-Isobutyl 12-(2',6'-bistrifluoromethyl-4'-pyridyloxy)-dodeca-2,4-dienamide], the “active (mortality)” value in the experiment on Musca domestica (at 1000 ppm), in the experiment on Spodoptera littoralis, in the experiment on Sitophilus granarius and in the experiment on Plutella xylostella [2] (at 200 ppm) was “active” throughout. With `CC(C=CCCCCCCCOc1cccnc1Br)=CC(=O)NCC(C)C` [Example 29], the “active (mortality)” value with Spodoptera littoralis and in the experiment on Tetranychus urticae (at 1000 ppm) was “active” throughout. Turning to `CC(C)CNC(=O)C=CC=CCCCCCCCOc1ncccc1Cl` [Example 12], the “active (mortality)” value in the experiment with Myzus persicae (at 1000 ppm) is given as “active”. As to `CC(C)CNC(=O)/C=C/C=C/CCCCCCCOc1cc(C(F)(F)F)cc(C(F)(F)F)n1` [Example 19, (2E,4E) N-isobutyl 12-(4',6'-bistrifluoromethyl-2'-pyridyloxy) -dodeca-2,4-dienamide], the “active (mortality)” value in the experiment with Musca domestica (at 200 ppm), in the experiment with Sitophilus granarius and with Plutella xylostella [2] (at 200 ppm) was “active” throughout.

`CC(C=CCCCCCCCOc1cc(C(F)(F)F)cc(Cl)n1)=CC(=O)NCC(C)C` [Example 11]: the “active (mortality)” value with Musca domestica (at 1000 ppm), with Plutella xylostella [1] (at 1000 ppm), in the experiment on Spodoptera littoralis and with Tetranychus urticae (at 1000 ppm) was “active” each time. On to `CC(C=CCCCCCCCOc1cc(C(F)(F)F)cc(C(F)(F)F)n1)=CC(=O)NCC(C)C` [Example 23], for which the “active (mortality)” value in the experiment with Musca domestica (at 1000 ppm) and in the experiment on Tetranychus urticae (at 1000 ppm) was “active” throughout. Turning to “(2E,4E) N-Isobutyl 12-(4'-chloro-2'-pyrimidyloxy)-dodeca-2,4-dienamide and (2E,4E) N-Isobutyl 12-(2'-chloro-4-pyrimidyloxy)-dodeca-2,4-dienamide [Example 32]”, the “active (mortality)” value in the experiment on Tetranychus urticae (at 1000 ppm) was “active”. For `C=C(C)CNC(=O)C=CC=CCCCCCCCOc1cc(C(F)(F)F)cc(C(F)(F)F)n1` [Example 21], the “active (mortality)” value in the experiment on Musca domestica (at 200 ppm), in the experiment on Sitophilus granarius and in the experiment on Tetranychus urticae (at 1000 ppm) was “active” throughout. “(2E/Z,4E) N-Isobutyl 3-methyl-12-(4-chloro-2'-pyrimidyloxy) -dodeca-2,4-dienamide and (2E/Z,4E) N-Isobutyl 3-methyl-12-(2-chloro-4'-pyrimidyloxy) -dodeca-2,4-dienamide [Example 33]”: the “active (mortality)” value in the experiment with Myzus persicae (at 1000 ppm) was “active”. Regarding `CC(C=CCCCCCCCOc1cccnc1Cl)=CC(=O)NC(C)C(C)C` (stereo not drawn) [Example 27], the “active (mortality)” value in the experiment on Tetranychus urticae (at 1000 ppm) is on record as “active”. Turning to `CC(/C=C/CCCCCCOCc1cccc(Cl)n1)=C\C(=O)NCC(C)C` [Example 36, (2E,4E) N-Isobutyl 11-(6'-chloro-2'-pyridylmethoxy) -3-methylundeca-2,4-dienamide], the “active (mortality)” value in the experiment on Plutella xylostella [2] (at 1000 ppm) and in the experiment on Tetranychus urticae (at 1000 ppm) was “active” throughout. With `CCC(C)NC(=O)C=CC=CCCCCCCCOc1ccccn1` (stereo not drawn) [Example 16], the “active (mortality)” value with Musca domestica (at 1000 ppm) and in the experiment with Myzus persicae (at 200 ppm) was “active” throughout.

For “(2E,4E) N-1-Methylpropyl 12-(4'-chloro-2-pyrimidyloxy) dodeca-2,4-dienamide and (2E,4E) N-1-Methylpropyl 12-(2-chloro-4'-pyrimidyloxy) -dodeca-2,4-dienamide [Example 34]”, the “active (mortality)” value in the experiment on Tetranychus urticae (at 1000 ppm) was “active”.
